The values that follow come from paper PMC4133348, “Domain Organization, Catalysis and Regulation of Eukaryotic Cystathionine Beta-Synthases” (PLoS ONE, 2014).

One data set has as its target T1, dCBS (Drosophila melanogaster, UniProt Q9VRD9).
T1 construct: gene Cbs; full-length, permanent C-terminal 6xHis (pET28-C-dCBS), E. coli Rosetta2 (DE3), homodimer, heme-containing
T1 sequence (Q9VRD9 1-522): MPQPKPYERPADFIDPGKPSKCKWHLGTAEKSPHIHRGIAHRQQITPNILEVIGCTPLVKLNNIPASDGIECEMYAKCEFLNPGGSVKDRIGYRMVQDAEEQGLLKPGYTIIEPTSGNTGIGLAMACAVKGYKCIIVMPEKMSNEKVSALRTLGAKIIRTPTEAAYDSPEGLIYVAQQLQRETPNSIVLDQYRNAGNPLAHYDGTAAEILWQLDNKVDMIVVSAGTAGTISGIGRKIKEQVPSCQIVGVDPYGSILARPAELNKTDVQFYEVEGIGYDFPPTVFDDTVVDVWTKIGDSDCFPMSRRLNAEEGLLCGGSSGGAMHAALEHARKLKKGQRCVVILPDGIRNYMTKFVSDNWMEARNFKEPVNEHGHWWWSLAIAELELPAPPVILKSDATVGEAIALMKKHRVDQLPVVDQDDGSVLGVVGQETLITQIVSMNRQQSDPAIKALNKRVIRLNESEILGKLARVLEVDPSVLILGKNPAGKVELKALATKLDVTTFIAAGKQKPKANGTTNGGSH
The data set is described as follows: […]serine radioisotope assay of canonical reaction. Particulars: 10 mM L-serine, 10 mM L-homocysteine, 0.2 mM PLP, pH 8.6, 37 °C. The class given is biochemical.

In data set [1] the target is T2, hCBS (Homo sapiens, UniProt P35520).
T2 construct: gene CBS; full-length, permanent C-terminal 6xHis, E. coli, homotetramer of 63 kDa polypeptides, heme-containing
T2 sequence (P35520 1-551): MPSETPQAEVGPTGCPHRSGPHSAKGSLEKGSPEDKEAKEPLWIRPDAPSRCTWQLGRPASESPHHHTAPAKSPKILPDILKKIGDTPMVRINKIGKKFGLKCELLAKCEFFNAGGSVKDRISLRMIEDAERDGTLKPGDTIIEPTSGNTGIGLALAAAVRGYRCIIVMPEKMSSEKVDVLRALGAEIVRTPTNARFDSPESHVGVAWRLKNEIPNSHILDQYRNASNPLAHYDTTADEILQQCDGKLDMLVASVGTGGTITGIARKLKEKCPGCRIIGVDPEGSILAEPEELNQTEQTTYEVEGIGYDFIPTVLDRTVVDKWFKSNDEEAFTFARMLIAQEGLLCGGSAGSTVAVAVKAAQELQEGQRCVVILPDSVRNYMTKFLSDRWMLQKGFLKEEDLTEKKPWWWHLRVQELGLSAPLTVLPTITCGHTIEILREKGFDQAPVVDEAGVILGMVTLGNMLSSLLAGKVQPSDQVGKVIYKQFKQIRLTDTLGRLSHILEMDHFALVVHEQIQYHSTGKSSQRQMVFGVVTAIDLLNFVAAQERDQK
The data set is described as above. The class given is biochemical. Particulars: 10 mM L-serine, 10 mM L-homocysteine, 0.2 mM PLP, pH 8.6, 37 °C; no AdoMet.

The target of data set [2] is T3, yCBS (Saccharomyces cerevisiae, UniProt P32582).
T3 construct: gene CYS4
T3 sequence (P32582 1-507): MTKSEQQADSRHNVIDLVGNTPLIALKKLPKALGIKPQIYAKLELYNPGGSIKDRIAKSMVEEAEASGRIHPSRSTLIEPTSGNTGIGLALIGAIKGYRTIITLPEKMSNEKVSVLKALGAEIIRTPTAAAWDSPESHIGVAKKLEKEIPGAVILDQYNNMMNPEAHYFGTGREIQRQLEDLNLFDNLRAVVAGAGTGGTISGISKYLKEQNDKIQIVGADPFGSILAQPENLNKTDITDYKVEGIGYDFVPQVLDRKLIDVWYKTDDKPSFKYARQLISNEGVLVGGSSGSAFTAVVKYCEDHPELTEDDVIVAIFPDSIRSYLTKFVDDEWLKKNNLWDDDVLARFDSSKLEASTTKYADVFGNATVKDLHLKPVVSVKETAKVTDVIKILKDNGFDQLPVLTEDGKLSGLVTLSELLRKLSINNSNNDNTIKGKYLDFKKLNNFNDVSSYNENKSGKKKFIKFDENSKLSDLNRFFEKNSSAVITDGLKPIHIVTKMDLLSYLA
Nature of the data set: differential scanning calorimetry. The following applies: 100 µM AdoMet, 20 mM HEPES pH 7.4, 50 µM PLP, 3 °C/min. It is filed as binding.

Data set [3] deals with T3, yCBS. Nature of the data set: isothermal titration calorimetry. It is filed as binding. In general terms: In ITC the heat of successive injections is recorded.
In data set [4] the target is T2, hCBS. The data set is described as follows: […]serine radioisotope assay of canonical reaction (activation). The class given is biochemical. Particulars: 10 mM L-serine, 10 mM L-homocysteine, 0.2 mM PLP, pH 8.6, 37 °C; allosteric activator.
Data set [5] concerns the target T4, human cystathionine beta-synthase, full-length (human), P35520.
T4 chain: T2 sequence (P35520 1-551)
The data set is described as follows: native gel or EMSA; purified enzymes (100 ng CBS per lane) separated in a 4–15% polyacrylamide gradient gel under native conditions, transferred to PVDF and probed with monoclonal anti-6xHis antibody; oligomeric state of each enzyme. The following applies: remark: other sources report otherwise. Background: A gel shift assay detects complexes by their altered migration in electrophoresis.

Data set [6] concerns the molecule itself. The description is as above.

On to `N[C@@H](CO)C(=O)O` [Ser], for which the “[14C]serine radioisotope assay of canonical reaction” value on dCBS was “specific activity compared to hCBS in the canonical condensation of Ser and Hcy”; at hCBS [1], “specific activity compared to hCBS in the canonical condensation of Ser and Hcy”.

On to `C[S+](CC[C@H](N)C(=O)O)C[C@H]1O[C@@H](n2cnc3c(N)ncnc32)[C@H](O)[C@@H]1O` (stereo partly shown) [AdoMet], for which the dTm at yCBS [2] is ~ 0.2 °C. For the same molecule, the equilibrium dissociation constant (Kd) – broadly, a measure of binding affinity in units of concentration – at yCBS [3] worked out at 5 ± 0.5 µM. Further, the “fold increase in specific activity at 300 μM” value on hCBS [4] was ~ 3.2 fold.

B1: human cystathionine beta-synthase, full-length, P35520 1-551 (enzyme)
chain: T2 sequence (P35520 1-551)
On to B1, for which the stoichiometry N (as a rule, the number of molecules, sites or subunits per partner or assembly) in data set [5] came to 4.

B2: Saccharomyces cerevisiae cystathionine beta-synthase, full-length (enzyme, UniProt P32582 1-507, looked up)
chain: T3 sequence (P32582 1-507)
notes: Cloned by NcoI and XhoI into pET-28a; also called yCBS; yCBS WT; source: E. coli Rosetta2 (DE3), purified (TALON, DEAE Sepharose); not shown: 6xHis, C-terminal, kept
In the case of B2, the “stoichiometry N” value in data set [6] was found to be 4.

B3: Drosophila melanogaster cystathionine beta-synthase, full-length (enzyme, UniProt Q9VRD9 1-522, looked up)
chain: T1 sequence (Q9VRD9 1-522)
notes: Cloned by NcoI and HindIII into pET-28a; also called dCBS; source: E. coli Rosetta2 (DE3), purified (TALON, DEAE Sepharose); not shown: 6xHis, C-terminal, kept
B3: the “stoichiometry N” value in data set [6] came to 2.

B4: 45 kDa hCBS (hCBS V414*), truncated human cystathionine beta-synthase lacking the regulatory domain (domain or fragment, UniProt P35520 1-413, looked up)
chain: MPSETPQAEVGPTGCPHRSGPHSAKGSLEKGSPEDKEAKEPLWIRPDAPSRCTWQLGRPASESPHHHTAPAKSPKILPDILKKIGDTPMVRINKIGKKFGLKCELLAKCEFFNAGGSVKDRISLRMIEDAERDGTLKPGDTIIEPTSGNTGIGLALAAAVRGYRCIIVMPEKMSSEKVDVLRALGAEIVRTPTNARFDSPESHVGVAWRLKNEIPNSHILDQYRNASNPLAHYDTTADEILQQCDGKLDMLVASVGTGGTITGIARKLKEKCPGCRIIGVDPEGSILAEPEELNQTEQTTYEVEGIGYDFIPTVLDRTVVDKWFKSNDEEAFTFARMLIAQEGLLCGGSAGSTVAVAVKAAQELQEGQRCVVILPDSVRNYMTKFLSDRWMLQKGFLKEEDLTEKKPWWWHLR
notes: cystathionine beta-synthase, Homo sapiens, C-terminally truncated by a stop at V414 (regulatory domain removed); not shown: 6xHis, C-terminal, kept
Turning to B4, in data set [6], the “stoichiometry N” value amounted to 2.

B5: yCBS L345*, truncated Saccharomyces cerevisiae cystathionine beta-synthase lacking the regulatory domain (domain or fragment, UniProt P32582 1-344, looked up)
chain: MTKSEQQADSRHNVIDLVGNTPLIALKKLPKALGIKPQIYAKLELYNPGGSIKDRIAKSMVEEAEASGRIHPSRSTLIEPTSGNTGIGLALIGAIKGYRTIITLPEKMSNEKVSVLKALGAEIIRTPTAAAWDSPESHIGVAKKLEKEIPGAVILDQYNNMMNPEAHYFGTGREIQRQLEDLNLFDNLRAVVAGAGTGGTISGISKYLKEQNDKIQIVGADPFGSILAQPENLNKTDITDYKVEGIGYDFVPQVLDRKLIDVWYKTDDKPSFKYARQLISNEGVLVGGSSGSAFTAVVKYCEDHPELTEDDVIVAIFPDSIRSYLTKFVDDEWLKKNNLWDDDV
notes: cystathionine beta-synthase, Saccharomyces cerevisiae, C-terminally truncated at L345 (pET28-C-yCBS L345*); Cloned by NcoI and XhoI into pET-28a; source: E. coli Rosetta2 (DE3), purified (TALON, DEAE Sepharose); not shown: 6xHis, C-terminal, kept
Regarding B5, in data set [6], the “stoichiometry N” value was 2.
